The text below walks through data of US12220417B2, “Pharmaceutical compositions comprising (S)-2-(2,6-dioxopiperidin-3-yl)-4-((2-fluoro-4-((3-morpholinoazetidin-1-yl)methyl)benzyl)amino)isoindoline-1,3-dione and methods of using the same” (Celgene Corporation, priority 2019, dated 2025).

A short description of one data set: Solubility of Compound 1. In kind it is physicochemical. The settings on record: compared to the low dose / proposed dose levels.
Another data set relates to DB. The data set can be described thus: Flow cytometry viability/apoptosis assay, DB. The note with it: Homo sapiens, DLBCL GCB, 120 hours, read-out: % Viable Cells IC50. In kind it is cell-based. As for the experimental part: (§1) Cell Proliferation and Viability Assay Using Hematological Cell Lines: The following exemplary anti-proliferative assay uses exemplary hematological cell lines in the following. The in vitro growth inhibitory activity of Compound 1 described herein was evaluated using a 384-well flow cytometry assay.
(§2) The cell lines were plated in 384-well flat bottom plates and assessed with increasing concentrations of compound ranging from 0.00015 to 10 μM or dimethyl sulfoxide (DMSO) control. The final concentration of DMSO was 0.1% (v/v). Following the addition of Compound 1 or DMSO and incubation for 120 hours, cell number and cell death were analyzed by flow cytometry (Attune®, Thermo Fisher) using Annexin V and the live-cell impermeant DNA dye, DRAQ7. […]
(§3) Flow cytometry data analysis was then performed using the Flow Jo_v10 software to determine the number of viable cells (Annexin V and DRAQ7 double negative staining cells) and percentage of apoptotic cells (Annexin V positive cells) for each condition. […] The IC50 (50% inhibitory concentration) and Emax (maximum efficacy achieved) values were then calculated by performing nonlinear regression curve fitting using log(inhibitor) vs. normalized response—variable slope analysis on GraphPad Prism 7.03. Area under the curve (AUC) was calculated by performing area under curve analysis on GraphPad Prism 7.03. […]
Background: A flow cytometer gives signals particle by particle.

The subject of a further data set is hematological cell lines. The data set can be described thus: Cell Proliferation and Viability Assay Using Hematological Cell Lines (whole panel). In kind it is cell-based. The settings on record: panel of hematological cell lines, 0.00015 to 10 μM, 5 days. On the procedure:
as §1, §2, §3

The next data set has as its system WA-OSEL. Description: Flow cytometry viability/apoptosis assay, WA-OSEL. The settings on record: CLL, 120 hours, read-out: % Viable Cells IC50. In kind it is cell-based. As for the experimental part: as §1, §2, §3
Another data set concerns OCI-LY3. Description: Flow cytometry viability/apoptosis assay, OCI-LY3. In kind it is cell-based. The settings on record: Homo sapiens; OCI-LY3, DLBCL ABC; 120 hours; read-out: % Viable Cells IC50. On the procedure:
as §1, §2, §3

The test system of a further data set is HG3. The data set can be described thus: Flow cytometry viability/apoptosis assay, HG3. In kind it is cell-based. The note with it: HG-3; HG3, CLL; 120 hours; read-out: % Viable Cells IC50. On the procedure: as §1, §2, §3
In a further data set the test system is CII. The data set can be described thus: Flow cytometry viability/apoptosis assay, CII. In kind it is cell-based. The note with it: CLL, 120 hours, read-out: % Viable Cells IC50. As for the experimental part: as §1, §2, §3
A further data set has as its system Mec1. The data set can be described thus: Flow cytometry viability/apoptosis assay, Mec1. In kind it is cell-based. The settings on record: Homo sapiens; Mec1, CLL; 120 hours; read-out: % Viable Cells IC50. As for the experimental part: as §1, §2, §3
For another data set, the system named is PGA1. The data set can be described thus: Flow cytometry viability/apoptosis assay, PGA1. In kind it is cell-based. The settings on record: PGA1, CLL; 120 hours; read-out: % Viable Cells IC50. On the procedure:
as §1, §2, §3

For another data set, the system named is ROS-50. The data set can be described thus: Flow cytometry viability/apoptosis assay, ROS-50. The settings on record: ROS-50, DLBCL; 120 hours; read-out: % Viable Cells IC50. In kind it is cell-based. As for the experimental part:
as §1, §2, §3

Regarding `Cl.O=C1CC[C@H](N2C(=O)c3cccc(NCc4ccc(CN5CC(N6CCOCC6)C5)cc4F)c3C2=O)C(=O)N1` [Compound 1 HC, salt], the solubility entry in “Solubility of Compound 1” is on record as “relatively high”.
Consider `O=C1CC[C@H](N2C(=O)c3cccc(NCc4ccc(CN5CC(N6CCOCC6)C5)cc4F)c3C2=O)C(=O)N1` [Compound 1, (S)-2-(2,6-dioxopiperidin-3-yl)-4-((2-fluoro-4-((3-morpholinoazetidin-1-yl)methyl)benzyl)amino)isoindoline-1,3-dione], for which the half-inhibitory concentration (IC50) with DB, with WA-OSEL, in the data set on OCI-LY3, in the data set with HG3, with CII and in the data set on Mec1 was ≥ 10 µM throughout. Moreover, the half-maximal inhibitory concentration (IC50) in the data set with PGA1 and with ROS-50 was ≥ 10 µM each time. Also, in the data set with hematological cell lines, the “antiproliferative activity and/or apoptotic effects” value was “antiproliferative activity and/or apoptotic effects in almost all hematological cell lines tested”. The solubility result in the data set “Solubility of Compound 1” was “relatively high”.

The IC50 is the concentration at which inhibition is half-maximal.
